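Where inhibition never reached the appropriate level, the endpoint shown equals the highest concentration tested. Otherwise, values were interpolated linearly from a five-concentration, 48-hour dose response in 96-well plates. TGI: concentration producing complete growth inhibition.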
Columns and labels:
Assay in all cases: inhibition of tumour cell growth, NCI panel, 48 h
MDA-MB-435 = system: MDA-MB-435
UO-31 renal = system: UO-31 renal
TK-10 renal = system: TK-10 renal
SK-MEL-2 melanoma = system: SK-MEL-2 melanoma
UACC-62 melanoma = system: UACC-62 melanoma
HOP-62 NSCLC = system: HOP-62 NSCLC
COLO 205 colon = system: COLO 205 colon
SF-268 CNS = system: SF-268 CNS
HT29 colon = system: HT29 colon
IGROV1 ovarian = system: IGROV1 ovarian
U251 CNS = system: U251 CNS
SK-MEL-5 melanoma = system: SK-MEL-5 melanoma
SR leukemia = system: SR leukemia
ACHN renal = system: ACHN renal
SNB-75 CNS = system: SNB-75 CNS
HL-60(TB) leukemia = system: HL-60(TB) leukemia
786-0 renal = system: 786-0 renal
HS 578T breast = system: HS 578T breast
LOX IMVI melanoma = system: LOX IMVI melanoma
BT-549 breast = system: BT-549 breast
NCI/ADR-RES ovarian = system: NCI/ADR-RES ovarian
MALME-3M melanoma = system: MALME-3M melanoma
EKVX NSCLC = system: EKVX NSCLC
SF-295 CNS = system: SF-295 CNS
K-562 leukemia = system: K-562 leukemia
A498 renal = system: A498 renal
PC-3 prostate = system: PC-3 prostate
SK-MEL-28 melanoma = system: SK-MEL-28 melanoma
SK-OV-3 ovarian = system: SK-OV-3 ovarian
A549 NSCLC = system: A549 NSCLC
NCI-H226 lung = system: NCI-H226 lung
SW-620 colon = system: SW-620 colon
KM12 colon = system: KM12 colon
MDA-N = system: MDA-N
MOLT-4 leukemia = system: MOLT-4 leukemia
T-47D breast = system: T-47D breast
MDA-MB-231 breast = system: MDA-MB-231 breast
OVCAR-8 ovarian = system: OVCAR-8 ovarian
SN12C renal = system: SN12C renal
OVCAR-3 ovarian = system: OVCAR-3 ovarian
RXF 393 renal = system: RXF 393 renal
NCI-H522 lung = system: NCI-H522 lung
CAKI-1 renal = system: CAKI-1 renal
DU-145 prostate = system: DU-145 prostate
HCT-116 colon = system: HCT-116 colon
UACC-257 melanoma = system: UACC-257 melanoma
HOP-92 NSCLC = system: HOP-92 NSCLC
NCI-H23 lung = system: NCI-H23 lung
RPMI-8226 leukemia = system: RPMI-8226 leukemia
HCT-15 colon = system: HCT-15 colon
SNB-19 CNS = system: SNB-19 CNS
M14 melanoma = system: M14 melanoma
OVCAR-5 ovarian = system: OVCAR-5 ovarian
OVCAR-4 ovarian = system: OVCAR-4 ovarian
HCC-2998 colon = system: HCC-2998 colon
MCF7 breast = system: MCF7 breast
SF-539 CNS = system: SF-539 CNS
NCI-H460 lung = system: NCI-H460 lung
CCRF-CEM leukemia = system: CCRF-CEM leukemia

Measured: TGI

N#CC1(C#N)N[C@@H](c2ccsc2)[C@H]2C(=O)N(c3ccccc3)C(=O)[C@H]21
42 µM: HL-60(TB) leukemia
53.5 µM: RPMI-8226 leukemia
78.7 µM: SR leukemia
not listed: HCT-15 colon | SNB-19 CNS | M14 melanoma | OVCAR-5 ovarian | OVCAR-4 ovarian | HCC-2998 colon | MCF7 breast | SF-539 CNS | NCI-H460 lung | CCRF-CEM leukemia
> 100 µM: all other assays above

CN(C)C(=O)O/N=C1/C(c2c(O)[nH]c3ccccc23)=Nc2ccccc21
18.1 µM: A498 renal
50.6 µM: T-47D breast
28.5 µM: SF-268 CNS
21.8 µM: 786-0 renal
33.4 µM: SK-MEL-2 melanoma
33.1 µM: OVCAR-4 ovarian
33.5 µM: EKVX NSCLC
57 µM: OVCAR-3 ovarian
48.8 µM: SK-OV-3 ovarian
21.4 µM: SF-539 CNS
48.9 µM: HOP-62 NSCLC
65 µM: MDA-MB-231 breast
14.1 µM: RXF 393 renal
72.6 µM: CAKI-1 renal
57.1 µM: TK-10 renal
40.2 µM: HS 578T breast
39.1 µM: SNB-19 CNS
75.3 µM: NCI-H522 lung
8.69 µM: SNB-75 CNS
64 µM: IGROV1 ovarian
66.1 µM: OVCAR-8 ovarian
33.9 µM: U251 CNS
43.7 µM: BT-549 breast
68.8 µM: SF-295 CNS
35.4 µM: SR leukemia
41.5 µM: MOLT-4 leukemia
98.6 µM: UACC-62 melanoma
30 µM: MALME-3M melanoma
33 µM: HOP-92 NSCLC
not listed: PC-3 prostate | NCI-H226 lung
> 100 µM: all other assays above
